# From ChEMBL document CHEMBL3885881, “DrugMatrix”
# Organism: Rattus norvegicus
# Assay: DrugMatrix - Regimen: Daily Repeat
# Assay type: toxicity, organism-based, Sprague-Dawley
# Set-up: regimen Daily Repeat, gender Male, age 6-8 weeks
# Conditions: in vivo, po, route oral GAVAGE, vehicle .5 % CMC; for ABSOLUTE BASOPHIL / ABSOLUTE EOSINOPHIL / ABSOLUTE LYMPHOCYTE / ABSOLUTE MONOCYTE / ABSOLUTE SEGMENTED NEUTROPHIL / BASOPHIL / EOSINOPHIL / ERYTHROCYTE COUNT / HEMATOCRIT / HEMOGLOBIN / LEUKOCYTE COUNT / LYMPHOCYTE / MEAN CORPUSCULAR HEMOGLOBIN / MEAN CORPUSCULAR HEMOGLOBIN CONCENTRATION / MEAN CORPUSCULAR VOLUME / MONOCYTE / NEUTROPHIL / NUCLEATED RED BLOOD CELLS / PLATELET COUNT: tissue Blood; for ALANINE AMINOTRANSFERASE / ALBUMIN / ALKALINE PHOSPHATASE / ASPARTATE AMINOTRANSFERASE / BLOOD UREA NITROGEN / CARBON DIOXIDE / CHLORIDE / CHOLESTEROL / CREATINE PHOSPHOKINASE / CREATININE / GLUCOSE / LACTATE DEHYDROGENASE / LIPASE / PHOSPHORUS / POTASSIUM / SODIUM / TOTAL BILIRUBIN / TOTAL PROTEIN / URIC ACID: tissue Plasma
# [1] = 0 mg/kg, 72 h, dose level Control, time 3 day
# [2] = 0 mg/kg, 120 h, dose level Control, time 5 day
# [3] = 40 mg/kg, 72 h, dose level Low, time 3 day
structure (smiles),measurement,setting,value
C[C@@](Cc1ccc(O)c(O)c1)(NN)C(=O)O.O [CARBIDOPA],ABSOLUTE BASOPHIL,[1],0 CELLS/uL
same,ABSOLUTE EOSINOPHIL,[1],222.83 CELLS/uL
same,ABSOLUTE LYMPHOCYTE,[1],14453 CELLS/uL
same,ABSOLUTE MONOCYTE,[1],0 CELLS/uL
same,ABSOLUTE SEGMENTED NEUTROPHIL,[1],1490.83 CELLS/uL
same,BASOPHIL,[1],0%
same,EOSINOPHIL,[1],1.33%
same,ERYTHROCYTE COUNT,[1],5.76 x10E6/uL
same,HEMATOCRIT,[1],36.52%
same,HEMOGLOBIN,[1],13.45 G/DL
same,LEUKOCYTE COUNT,[1],16.17 x10E3/uL
same,LYMPHOCYTE,[1],89.33%
same,MEAN CORPUSCULAR HEMOGLOBIN,[1],23.37 pg
same,MEAN CORPUSCULAR HEMOGLOBIN CONCENTRATION,[1],36.85 G/DL
same,MEAN CORPUSCULAR VOLUME,[1],63.47 fL
same,MONOCYTE,[1],0%
same,NEUTROPHIL,[1],9.33%
same,NUCLEATED RED BLOOD CELLS,[1],0 /100WBC
same,PLATELET COUNT,[1],1239.5 x10E3/uL
same,ALANINE AMINOTRANSFERASE,[1],43.83 u/L
same,ALBUMIN,[1],4.27 G/DL
same,ALKALINE PHOSPHATASE,[1],398.83 u/L
same,ASPARTATE AMINOTRANSFERASE,[1],81.17 u/L
same,BLOOD UREA NITROGEN,[1],17.67 mg/dL
same,CARBON DIOXIDE,[1],27.5 mmol/L
same,CHLORIDE,[1],99.17 MEQ/L
same,CHOLESTEROL,[1],74 mg/dL
same,CREATINE PHOSPHOKINASE,[1],331.5 u/L
same,CREATININE,[1],0.2 mg/dL
same,GLUCOSE,[1],171.33 mg/dL
same,LACTATE DEHYDROGENASE,[1],241.67 u/L
same,LIPASE,[1],9.5 u/L
same,PHOSPHORUS,[1],12.25 mg/dL
same,POTASSIUM,[1],6.33 MEQ/L
same,SODIUM,[1],141.28 MEQ/L
same,TOTAL BILIRUBIN,[1],0.15 mg/dL
same,TOTAL PROTEIN,[1],5.98 G/DL
same,URIC ACID,[1],1.63 mg/dL
same,ABSOLUTE BASOPHIL,[2],0 CELLS/uL
same,ABSOLUTE EOSINOPHIL,[2],148.67 CELLS/uL
same,ABSOLUTE LYMPHOCYTE,[2],16020.5 CELLS/uL
same,ABSOLUTE MONOCYTE,[2],29.17 CELLS/uL
same,ABSOLUTE SEGMENTED NEUTROPHIL,[2],1468.33 CELLS/uL
same,BASOPHIL,[2],0%
same,EOSINOPHIL,[2],1%
same,ERYTHROCYTE COUNT,[2],5.78 x10E6/uL
same,HEMATOCRIT,[2],35.77%
same,HEMOGLOBIN,[2],13.4 G/DL
same,LEUKOCYTE COUNT,[2],17.67 x10E3/uL
same,LYMPHOCYTE,[2],90.5%
same,MEAN CORPUSCULAR HEMOGLOBIN,[2],23.22 pg
same,MEAN CORPUSCULAR HEMOGLOBIN CONCENTRATION,[2],37.47 G/DL
same,MEAN CORPUSCULAR VOLUME,[2],61.92 fL
same,MONOCYTE,[2],0.17%
same,NEUTROPHIL,[2],8.33%
same,NUCLEATED RED BLOOD CELLS,[2],0.17 /100WBC
same,PLATELET COUNT,[2],1255.5 x10E3/uL
same,ALANINE AMINOTRANSFERASE,[2],46.5 u/L
same,ALBUMIN,[2],4.38 G/DL
same,ALKALINE PHOSPHATASE,[2],336 u/L
same,ASPARTATE AMINOTRANSFERASE,[2],76.5 u/L
same,BLOOD UREA NITROGEN,[2],20 mg/dL
same,CARBON DIOXIDE,[2],27.5 mmol/L
same,CHLORIDE,[2],101 MEQ/L
same,CHOLESTEROL,[2],71.33 mg/dL
same,CREATINE PHOSPHOKINASE,[2],231.83 u/L
same,CREATININE,[2],0.37 mg/dL
same,GLUCOSE,[2],168.83 mg/dL
same,LACTATE DEHYDROGENASE,[2],174 u/L
same,LIPASE,[2],8.67 u/L
same,PHOSPHORUS,[2],11.48 mg/dL
same,POTASSIUM,[2],6.82 MEQ/L
same,SODIUM,[2],143.8 MEQ/L
same,TOTAL BILIRUBIN,[2],0.2 mg/dL
same,TOTAL PROTEIN,[2],5.98 G/DL
same,URIC ACID,[2],1.83 mg/dL
same,ABSOLUTE BASOPHIL,[3],0 CELLS/uL
same,ABSOLUTE EOSINOPHIL,[3],143.67 CELLS/uL
same,ABSOLUTE LYMPHOCYTE,[3],13232.67 CELLS/uL
same,ABSOLUTE MONOCYTE,[3],0 CELLS/uL
same,ABSOLUTE SEGMENTED NEUTROPHIL,[3],1090.33 CELLS/uL
same,BASOPHIL,[3],0%
same,EOSINOPHIL,[3],1%
same,ERYTHROCYTE COUNT,[3],5.57 x10E6/uL
same,HEMATOCRIT,[3],35.7%
same,HEMOGLOBIN,[3],13.3 G/DL
same,LEUKOCYTE COUNT,[3],14.47 x10E3/uL
same,LYMPHOCYTE,[3],91.67%
same,MEAN CORPUSCULAR HEMOGLOBIN,[3],23.87 pg
same,MEAN CORPUSCULAR HEMOGLOBIN CONCENTRATION,[3],37.27 G/DL
same,MEAN CORPUSCULAR VOLUME,[3],64.03 fL
same,MONOCYTE,[3],0%
same,NEUTROPHIL,[3],7.33%
same,NUCLEATED RED BLOOD CELLS,[3],0 /100WBC
same,PLATELET COUNT,[3],1331.33 x10E3/uL
same,ALANINE AMINOTRANSFERASE,[3],40.33 u/L
same,ALBUMIN,[3],4.27 G/DL
same,ALKALINE PHOSPHATASE,[3],388.33 u/L
same,ASPARTATE AMINOTRANSFERASE,[3],77 u/L
same,BLOOD UREA NITROGEN,[3],14 mg/dL
same,CARBON DIOXIDE,[3],29 mmol/L
same,CHLORIDE,[3],100.67 MEQ/L
same,CHOLESTEROL,[3],72.33 mg/dL
same,CREATINE PHOSPHOKINASE,[3],210.67 u/L
same,CREATININE,[3],0.21 mg/dL
same,GLUCOSE,[3],156 mg/dL
same,LACTATE DEHYDROGENASE,[3],151.33 u/L
same,LIPASE,[3],8.33 u/L
same,PHOSPHORUS,[3],12.9 mg/dL
same,POTASSIUM,[3],6.71 MEQ/L
same,SODIUM,[3],144.3 MEQ/L
same,TOTAL BILIRUBIN,[3],0.23 mg/dL
same,TOTAL PROTEIN,[3],5.9 G/DL
same,URIC ACID,[3],1.83 mg/dL
